Test results as given in US20200308240A1, “Targeting Innate Immune Signaling in Neuroinflammation and Neurodegeneration” (The General Hospital Corporation, priority 2016, published 2020).
“Also recorded” adds a separate entry of the source.

Legend:
[1] = test system: neuronal differentiated ReNcell VM cells; experiment: dsRNA mimetic (PolyIC)-induced neurodegeneration in differentiated ReNVM neurons, cell viability by Celltiter-Glo; type: cell-based, human; settings: for rescue of PolyIC (dsRNA)-induced neurodegeneration / neuronal death: differentiated ReNVM human neurons transfected with PolyIC, FIGS. 4B-N; for viability of ReNVM neurons transfected with PolyIC: escalating doses of poly IC, 48 hours (2 days), relative to mock-transfected neurons, FIG. 3A-F
Protocol: FIGS. 3A-G. dsRNA induces a Type I interferon response and is sufficient to induced neurodegeneration in human neurons. A-E) Representative transmitted light images of differentiated ReNVM neurons transfected with increasing doses of PolyIC, a dsRNA mimetic, showing a dose-dependent loss of neurons after 48 hours. […] G) Western blots showing the elevated protein expression of type I interferon-stimulated genes in differentiated ReNVM cells 24 hour post transfection with PolyIC, using indicated antibodies.
FIGS. 4A-N. Inhibitors of key type I interferon regulators rescues PolyIC induced neurodegeneration in ReNVM cells.
Building on those findings, a novel in vitro human neuronal culture system was developed to recapitulate this pathophysiologic process. These cells can be used, e.g., to identify compounds that modulate dsRNA-mediated neurodegeneration, as a methodology for screening and validation of hits for the novel targets and related targets on the pathway for neurodegeneration and Alzheimer's disease pathogenesis as well as for purposes of drug screening and validation with the primary outcome being loss of neurons. Briefly, a dsRNA-mimetic was introduced into a human neural progenitor immortalized cell line, ReN VM cells, in vitro. There was profound induction of the Type I interferon signaling pathways that were stimulated in mouse models of neurodegeneration including the pattern recognition receptors, PKR and MDA5. Importantly, accelerated neuronal death was also observed over 48 hours that was dependent on the dose of the dsRNA introduced into the cytoplasm. These cell-based phenotypes in human neurons recapitulated and extended findings (described in PCT/US2015/060401) outlining cytoplasmic double-stranded RNA mediated neuronal cell death in multiple transgenic mouse lines (Nd1, Nd2, and Nd3), each expressing a different gene, and a model of induced cytoplasmic dsRNA of GFP causing accelerated neurodegeneration.
Deploying this cell-based in vitro model of accelerated neurodegeneration of human neurons, a number of inhibitors of Type I interferon signaling pathways were tested.
To determine if cytoplasmic dsRNA is sufficient to mediate neurodegeneration in human neurons, we transfected neuronal differentiated ReNcell VM cells 27, 28, a human neural cell line derived from ventral mesencephalon, with escalating doses of poly IC (which mimics a GC dinucleotide repeat). […] We observed a marked induction of the pattern recognition receptors MDA5 and PKR that are cytoplasmic receptors for dsRNA (FIG. 3G) and TBK1 phosphorylation (FIG. 4A). In addition, downstream signaling events, i.e., MAVS reduction and IRF3 translocation to the nucleus for the MDA5 pathway, and phosphorylation of p38 and HSP27 for the PKR pathway, indicate that that neurons are capable of mounting this innate immune response intrinsically. […]

[2] = test system: IRF3 phosphorylation; experiment: IRF3 phosphorylation in poly-IC transfected ReNcell VM neurons; type: cell-based, human; settings: poly-IC transfected ReNcell VM neurons treated with inhibitor
Excerpt: To determine if cytoplasmic dsRNA is sufficient to mediate neurodegeneration in human neurons, we transfected neuronal differentiated ReNcell VM cells 27, 28, a human neural cell line derived from ventral mesencephalon, with escalating doses of poly IC (which mimics a GC dinucleotide repeat). […] We observed a marked induction of the pattern recognition receptors MDA5 and PKR that are cytoplasmic receptors for dsRNA (FIG. 3G) and TBK1 phosphorylation (FIG. 4A). In addition, downstream signaling events, i.e., MAVS reduction and IRF3 translocation to the nucleus for the MDA5 pathway, and phosphorylation of p38 and HSP27 for the PKR pathway, indicate that that neurons are capable of mounting this innate immune response intrinsically.
Many mutations in the TBK1 coding region are linked to ALS and FTD in an autosomal dominant manner. Expression of these mutant isoforms have been difficult to detect at the RNA and protein levels, giving rise to the hypothesis that haploinsufficiency of TBK1 drives neurodegeneration. Inhibition of TBK1 kinase activity challenge the hypothesis that LOF mutations cause the pathogenesis. TBK1 is activated by polyubiquitination and regulated by proteins binding to its CCH domain, including optineurin which binds TBK1, is mutated in some familial forms of ALS that abrogates inhibition of IRF3 4.

CC1(C)C(=O)C=C[C@]2(C)[C@H]3CC[C@@]4(C)[C@H](c5ccoc5)OC(=O)[C@H]5O[C@]54[C@]3(C)C=C[C@@H]12 [7DG]
rescue of PolyIC (dsRNA)-induced neurodegeneration / neuronal death [1]: did not show rescue of the neuronal death phenotype

Cc1cc(Nc2nc(N[C@@H](C)c3ncc(F)cn3)ncc2Cl)n[nH]1 [AZD1480, 5-Chloro-N2-[(1S)-1-(5-fluoro-2-pyrimidinyl)ethyl]-N4-(5-methyl-1H-pyrazol-3-yl)-2,4-pyrimidinediamine]
rescue of PolyIC (dsRNA)-induced neurodegeneration / neuronal death [1]: rescued PolyIC induced neurodegeneration

CCS(=O)(=O)N1CC(CC#N)(n2cc(-c3ncnc4[nH]ccc34)cn2)C1 [Baricitinib, 2-(3-(4-(7H-pyrrolo[2,3-d]pyrimidin-4-yl)-1H-pyrazol-1-yl)-1-(ethylsulfonyl)azetidin-3-yl)acetonitrile]
rescue of PolyIC (dsRNA)-induced neurodegeneration / neuronal death [1]: blocked neurodegeneration in dose dependent manner; also recorded: rescued PolyIC induced neurodegeneration

O=C1Nc2ccc3ncsc3c2/C1=C/c1cnc[nH]1 [C16]
rescue of PolyIC (dsRNA)-induced neurodegeneration / neuronal death [1]: did not show rescue of the neuronal death phenotype

N#CCNC(=O)c1ccc(-c2ccnc(Nc3ccc(N4CCOCC4)cc3)n2)cc1 [CYT387, N-(Cyanomethyl)-4-[2-[[4-(4-morpholinyl)phenyl]amino]-4-pyrimidinyl]benzamide]
rescue of PolyIC (dsRNA)-induced neurodegeneration / neuronal death [1]: blocked neurodegeneration in dose dependent manner; also recorded: rescued PolyIC induced neurodegeneration

O=C(Nc1nc2cccc(-c3ccc(CN4CCS(=O)(=O)CC4)cc3)n2n1)C1CC1 [Filgotinib, N-[5-[4-[(1,1-Dioxido-4-thiomorpholinyl)methyl]phenyl][1,2,4]triazolo[1,5-a]pyridin-2-yl]cyclopropanecarboxamide]
rescue of PolyIC (dsRNA)-induced neurodegeneration / neuronal death [1]: blocked neurodegeneration in dose dependent manner; also recorded: rescued PolyIC induced neurodegeneration

Cl.O=C(NN1CCC(N2CCCC2)CC1)c1ccc(Nc2nccc(-c3cc4ccccc4s3)n2)cc1 [IKK16, N-(4-Pyrrolidin-1-yl-piperidin-1-yl)-[4-(4-benzo[b]thiophen-2-yl-pyrimidin-2-ylamino)phenyl]carboxamide hydrochloride]
rescue of PolyIC (dsRNA)-induced neurodegeneration / neuronal death ([1]; hydrochloride): reversed poly-IC-mediated neurodegeneration; also recorded: rescued PolyIC induced neurodegeneration | IRF3 phosphorylation [2]: reduced IRF3 phosphorylation

O=C(NCCCNc1nc(Nc2cccc(NC(=O)N3CCCC3)c2)ncc1I)c1cccs1 [NK-6]
rescue of PolyIC (dsRNA)-induced neurodegeneration / neuronal death [1]: dose-dependent rescue of dsRNA-mediated neurodegeneration | rescue of PolyIC (dsRNA)-induced neurodegeneration / neuronal death ([1]; listed as BX795): rescues poly-IC-mediated neurodegeneration in a dose dependent manner; also recorded: rescued PolyIC induced neurodegeneration

NC(=O)Nc1sc(-c2ccc(F)cc2)cc1C(N)=O [NK-7, 2-[(Aminocarbonyl)amino]-5-(4-fluorophenyl)-3-thiophenecarboxamide]
rescue of PolyIC (dsRNA)-induced neurodegeneration / neuronal death [1]: dose-dependent rescue of dsRNA-mediated neurodegeneration | rescue of PolyIC (dsRNA)-induced neurodegeneration / neuronal death ([1]; listed as TPCA1): reversed poly-IC-mediated neurodegeneration | rescue of PolyIC (dsRNA)-induced neurodegeneration / neuronal death ([1]; listed as TPCA-1): rescued PolyIC induced neurodegeneration | IRF3 phosphorylation [2]: reduced IRF3 phosphorylation

CC(C)c1ccc2oc3nc(N)c(C(=O)O)cc3c(=O)c2c1 [NK-10, amlexanox]
rescue of PolyIC (dsRNA)-induced neurodegeneration / neuronal death [1]: rescued neurodegeneration; also recorded: dose-dependent rescue of dsRNA-mediated neurodegeneration | rescue of PolyIC (dsRNA)-induced neurodegeneration / neuronal death ([1]; listed as Amlexanox): rescued PolyIC induced neurodegeneration

CNC(=O)c1ccc(C)c(-n2c(C)cc(OCc3ccc(F)cc3F)c(Br)c2=O)c1 [PH 797804]
rescue of PolyIC (dsRNA)-induced neurodegeneration / neuronal death [1]: did not show rescue of the neuronal death phenotype

C1=C/COCc2cc(ccc2OCCN2CCCC2)Nc2nccc(n2)-c2cccc(c2)COC/1 [Pacritinib-1, 11-(2-pyrrolidin-1-yl-ethoxy)-14,19-dioxa-5,7,26-triaza-tetracyclo[19.3.1.1(2,6).1(8,12)]heptacosa-1(25),2(26),3,5,8,10,12(27),16,21,23-decaene]
rescue of PolyIC (dsRNA)-induced neurodegeneration / neuronal death [1]: blocked neurodegeneration in dose dependent manner; also recorded: rescued PolyIC induced neurodegeneration

Cc1cnc(Nc2ccc(OCCN3CCCC3)cc2)nc1Nc1cccc(S(=O)(=O)NC(C)(C)C)c1 [TG101348, 2.N-tert-butyl-3-(5-methyl-2-(4-(2-(pyrrolidin-1-yl)ethoxy)phenylamino)pyrimidin-4-ylamino)benzenesulfonamide]
rescue of PolyIC (dsRNA)-induced neurodegeneration / neuronal death [1]: blocked neurodegeneration in dose dependent manner; also recorded: rescued PolyIC induced neurodegeneration

C[C@@H]1CCN(C(=O)CC#N)C[C@@H]1N(C)c1ncnc2[nH]ccc12 [Tofacitinib, 3-((3R,4R)-4-methyl-3-(methyl(7H-pyrrolo [2,3-d]pyrimidin-4-yl)amino)piperidin-1-yl)-3-oxopropanenitrile]
rescue of PolyIC (dsRNA)-induced neurodegeneration / neuronal death [1]: blocked neurodegeneration in dose dependent manner; also recorded: rescued PolyIC induced neurodegeneration

O=C(Nc1ccc(-c2ccnc(Nc3ccc(N4CCOCC4)cc3)n2)cc1)[C@@H]1CCCN1 [XL019, (S)-N-(4-(2-((4-morpholinophenyl)amino)pyrimidin-4-yl)phenyl)pyrrolidine-2-carboxamide]
rescue of PolyIC (dsRNA)-induced neurodegeneration / neuronal death [1]: blocked neurodegeneration in dose dependent manner; also recorded: rescued PolyIC induced neurodegeneration

PolyIC
viability of ReNVM neurons transfected with PolyIC [1]: dose-dependent loss in cell viability | viability of ReNVM neurons transfected with PolyIC ([1]; listed as poly IC): dose-dependent reduction in their viability
